Reference: ChEMBL document CHEMBL1135807, “2,5'-Disubstituted adenosine derivatives: evaluation of selectivity and efficacy for the adenosine A(1), A(2A), and A(3) receptor” (J Med Chem, 2002)
pEC50, pKi: −log10 of the molar value.

Columns and labels:
[1] = target: T1, Adenosine receptor A1 (Rattus norvegicus) (UniProt P25099); assay: Ability to displace [3H]DPCPX from Adenosine A1 receptor in rat cortical membrane at 10e-5 M; type: cell membranes
T1 sequence (whole entry): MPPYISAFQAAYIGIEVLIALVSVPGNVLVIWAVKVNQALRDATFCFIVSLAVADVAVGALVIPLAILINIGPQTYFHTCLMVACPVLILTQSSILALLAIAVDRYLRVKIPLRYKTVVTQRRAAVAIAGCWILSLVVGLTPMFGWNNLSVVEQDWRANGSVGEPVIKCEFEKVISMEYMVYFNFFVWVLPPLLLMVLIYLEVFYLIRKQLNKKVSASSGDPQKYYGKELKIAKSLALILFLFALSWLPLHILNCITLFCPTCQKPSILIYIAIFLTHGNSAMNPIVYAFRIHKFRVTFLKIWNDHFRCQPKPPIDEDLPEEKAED

Adenosine receptor A2a [2] = target: Adenosine receptor A2a (Rattus norvegicus, UniProt P30543)
Sequence of Adenosine receptor A2a (Rattus norvegicus, UniProt P30543) (P30543 whole entry): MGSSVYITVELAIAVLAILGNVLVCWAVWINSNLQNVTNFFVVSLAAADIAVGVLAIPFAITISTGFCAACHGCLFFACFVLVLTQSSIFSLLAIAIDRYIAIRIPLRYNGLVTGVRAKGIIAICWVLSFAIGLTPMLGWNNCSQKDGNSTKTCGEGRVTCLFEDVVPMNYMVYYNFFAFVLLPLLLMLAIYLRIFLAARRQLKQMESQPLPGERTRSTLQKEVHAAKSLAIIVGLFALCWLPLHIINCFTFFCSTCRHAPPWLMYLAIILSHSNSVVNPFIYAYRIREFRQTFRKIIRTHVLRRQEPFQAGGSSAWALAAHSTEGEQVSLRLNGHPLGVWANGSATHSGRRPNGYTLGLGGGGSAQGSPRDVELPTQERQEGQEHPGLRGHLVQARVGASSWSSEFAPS
Description: Binding affinity at Adenosine A2A receptor in rat striatal membrane by [3H]ZM-241385 displacement.

[3] = target: T2, Adenosine receptor A3 (Homo sapiens) (UniProt P0DMS8); assay: % inhibition of forskolin induced (10 uM) cAMP production compared to C1-IB-MECA through Adenosine A3 receptor expressed in CHO cells at 30 uM; type: functional, cell-based
T2 sequence (whole entry): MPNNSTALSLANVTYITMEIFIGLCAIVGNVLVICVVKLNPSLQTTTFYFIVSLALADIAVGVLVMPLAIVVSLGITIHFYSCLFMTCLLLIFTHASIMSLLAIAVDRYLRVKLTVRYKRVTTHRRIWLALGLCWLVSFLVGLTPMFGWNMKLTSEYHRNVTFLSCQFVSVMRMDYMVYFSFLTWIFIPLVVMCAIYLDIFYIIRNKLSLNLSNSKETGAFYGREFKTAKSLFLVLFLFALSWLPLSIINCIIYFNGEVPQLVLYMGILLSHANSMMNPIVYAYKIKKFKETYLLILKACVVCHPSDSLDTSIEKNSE

Adenosine receptor A3 = target: T3, Adenosine receptor A3 (Homo sapiens, UniProt P0DMS8); assay: biochemical
T3 sequence (P0DMS8 whole entry): T2 sequence (whole entry)
Description: Binding affinity at human Adenosine A3 receptor expressed in HEK 293 cells by [125I]-AB MECA displacement.

Adenosine receptor A2a [4] = target: Adenosine receptor A2a (Homo sapiens, UniProt P29274); assay: G-protein activation in human Adenosine A2A receptor expressed in CHO cells using cAMP assay; type: functional, cell-based
Sequence of Adenosine receptor A2a (Homo sapiens, UniProt P29274) (P29274 whole entry): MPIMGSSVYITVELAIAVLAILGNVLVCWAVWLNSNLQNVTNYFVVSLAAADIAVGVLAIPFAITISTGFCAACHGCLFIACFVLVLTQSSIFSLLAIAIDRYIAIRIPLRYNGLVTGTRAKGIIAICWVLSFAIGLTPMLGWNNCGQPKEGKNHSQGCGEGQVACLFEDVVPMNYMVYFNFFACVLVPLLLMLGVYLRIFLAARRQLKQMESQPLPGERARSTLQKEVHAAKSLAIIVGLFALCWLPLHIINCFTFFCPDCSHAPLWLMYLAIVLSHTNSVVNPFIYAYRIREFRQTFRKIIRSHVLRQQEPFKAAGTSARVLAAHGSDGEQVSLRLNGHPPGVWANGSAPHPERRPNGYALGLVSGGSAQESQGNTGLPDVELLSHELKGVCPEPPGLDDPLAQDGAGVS

[5] = target: T2, Adenosine receptor A3 (Homo sapiens); assay: Percent inhibition of forskolin induced (10 uM) cAMP production compared to C1-IB-MECA through Adenosine A3 receptor expressed in CHO cells at 100 uM; type: functional, cell-based
[6] = target: T1, Adenosine receptor A1 (Rattus norvegicus); assay: Displacement of [3H]DPCPX from Adenosine A1 receptor in rat cortical membrane at 10e-5 M; type: cell membranes
Adenosine receptor A1 = target: T4, Adenosine receptor A1 (Rattus norvegicus, UniProt P25099); assay: Ability to displace [3H]DPCPX from Adenosine A1 receptor in rat cortical membrane; type: cell membranes
T4 sequence (P25099 whole entry): T1 sequence (whole entry)

SMILES	Displacement [1] [%]	pKi (Adenosine receptor A2a [2])	Emax [3] [%]	pKi (Adenosine receptor A3)	pEC50 (Adenosine receptor A2a [4])	Emax [5] [%]	Displacement [6] [%]	pKi (Adenosine receptor A1)
Nc1nc(I)nc2c1ncn2[C@@H]1O[C@H](CO)[C@@H](O)[C@H]1O	36.1	–	–	–	–	–	–	–
CSC[C@H]1O[C@@H](n2cnc3c(N)nc(I)nc32)[C@H](O)[C@@H]1O	–	5.41	–	–	–	–	–	–
CSC[C@H]1O[C@@H](n2cnc3c(N)nc(N/N=C/CC(C)C)nc32)[C@H](O)[C@@H]1O	18.9	6.66	41	6.60	5.30	–	–	–
CC(C)SC[C@H]1O[C@@H](n2cnc3c(N)nc(I)nc32)[C@H](O)[C@@H]1O	56.2	6.09	–	–	–	–	–	–
CCCSC[C@H]1O[C@@H](n2cnc3c(N)nc(N/N=C/CC(C)C)nc32)[C@H](O)[C@@H]1O	22	5.82	–	6.16	4.89	16	–	–
CC(C)C/C=N/Nc1nc(N)c2ncn([C@@H]3O[C@H](CSC(C)C)[C@@H](O)[C@H]3O)c2n1	–	5.74	26	6.39	4.98	–	13	–
CCCSC[C@H]1O[C@@H](n2cnc3c(N)nc(I)nc32)[C@H](O)[C@@H]1O	–	6.36	–	–	–	–	–	5.98
CCCCC#Cc1nc(N)c2ncn([C@@H]3O[C@H](CSC)[C@@H](O)[C@H]3O)c2n1	–	7.22	–	–	6.15	–	–	–
CC(C)C/C=N/Nc1nc(N)c2ncn([C@@H]3O[C@H](CO)[C@@H](O)[C@H]3O)c2n1	18.9	7.70	–	7.42	5.96	–	–	–
CCSC[C@H]1O[C@@H](n2cnc3c(N)nc(N/N=C/CC(C)C)nc32)[C@H](O)[C@@H]1O	21.2	6.30	–	6.09	5.12	7	–	–
CCCCC#Cc1nc(N)c2ncn([C@@H]3O[C@H](CSC(C)C)[C@@H](O)[C@H]3O)c2n1	–	6.66	–	–	5.44	–	–	5.90
CCSC[C@H]1O[C@@H](n2cnc3c(N)nc(I)nc32)[C@H](O)[C@@H]1O	–	5.92	–	–	–	–	–	6.41
CCCCC#Cc1nc(N)c2ncn([C@@H]3O[C@H](CSCCC)[C@@H](O)[C@H]3O)c2n1	–	6.77	–	–	6.10	–	46.5	–
CCCCC#Cc1nc(N)c2ncn([C@@H]3O[C@H](CSCC)[C@@H](O)[C@H]3O)c2n1	–	6.96	–	–	6.30	–	–	5.66
